Consider seven compounds from US7071197B2, “N,N-disubstituted diazocycloalkanes” (Recordati S.A., priority 2002, dated 2006).

pKi: −log10 of the molar value. Where two headings read alike, the source gives them in different places.

Assay [1] addresses T1, human 5HT1A-serotonergic receptor (Homo sapiens, UniProt P08908).
T1 construct: expressed in transfected cells
T1 sequence (P08908 1-422): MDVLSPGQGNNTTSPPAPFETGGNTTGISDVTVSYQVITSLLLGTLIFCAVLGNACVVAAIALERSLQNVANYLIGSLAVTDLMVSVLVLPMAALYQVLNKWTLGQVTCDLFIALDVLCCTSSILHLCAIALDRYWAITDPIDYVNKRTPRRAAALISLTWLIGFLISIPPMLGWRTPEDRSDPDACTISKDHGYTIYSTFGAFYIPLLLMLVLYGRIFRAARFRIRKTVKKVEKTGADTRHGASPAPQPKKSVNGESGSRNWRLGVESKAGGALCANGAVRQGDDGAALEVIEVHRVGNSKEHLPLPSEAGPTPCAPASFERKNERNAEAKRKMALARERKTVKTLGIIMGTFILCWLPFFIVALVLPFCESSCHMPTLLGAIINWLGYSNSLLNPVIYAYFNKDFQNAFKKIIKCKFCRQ
Description: [3H]8-OH-DPAT radioligand binding to human recombinant 5-HT1A receptors. The following applies: for pKi: [3H]8-OH-DPAT, HeLa cell membranes, read-out: Affinity: Ki. As to the method:
(§1) A genomic clone coding for the human 5HT1A-serotonergic receptor was stably transfected in a human cell line (HeLa). HeLa cells were grown as monolayers in Dulbecco's modified Eagle medium (DMEM), containing 10% fetal bovine serum, gentamycin (0.1 mg/ml) and 5% carbon dioxide, at 37° C. The cells were detached from the growth flask at 95% confluence by a cell scraper and were lysed in cold 5 mM Tris and 5 mM EDTA buffer (pH 7.4). The homogenates were centrifuged at 40000×g×20 minutes and the pellets were resuspended in a small volume of cold 5 mM Tris and 5 mM EDTA buffer (pH 7.4) and immediately frozen and stored at −70° C. until use.
[^3H]8-OH-DPAT binding: on the day of experiment, the cell membranes were resuspended in incubation buffer: 50 mM Tris HCl (pH 7.4), 2.5 mM MgCl2, […] (Fargin et al., Nature 335, 358–360, 1988). The membranes were incubated in a final volume of 1 ml for 30 minutes at 30° C. with 1 nM [^3H]8-OH-DPAT, in the absence or presence of the test compounds. Non-specific binding was determined in the presence of 10 μM 5-HT. Incubation was stopped by addition of cold Tris-HCl buffer and rapid filtration through a 0.2%-polyethyleneimine-pretreated Whatman-GF/B or Schleicher-&-Schuell-GF52 filter.
The affinity of the tested compounds was evaluated as inhibition of specific binding of the radioligand to 5-HT1A receptors (IC50) by using the non-linear curve-fitting program (De Lean et al., Am. J. Physiol. 235, E97-E102, 1978). The IC50 value was converted to an affinity constant (Ki) by the equation of Cheng et al., Biochem. Pharmacol. 22, 3099–3108 (1973).

The target in assay [2] is T2, human cloned 5-HT1A receptors (Homo sapiens, UniProt P08908).
T2 construct: expressed in transfected cells
T2 sequence (P08908 1-422): T1 sequence (P08908 1-422)
Kind of assay: [35S]GTPγS binding, membranes of HeLa cells transfected with human cloned 5-HT1A receptors. The assay is classed as biochemical. The following applies: 5-HT maximal stimulation taken as 100%. As to the method:
as §1
[^35S]GTPγS binding: on the experimental day, cell membranes from HeLa cells transfected with human cloned 5-HT1A receptors were resuspended in buffer pH 7.4 containing 20 mM HEPES, 3 mM MgCl2 and 120 mM NaCl (Stanton, J. A.; Beer, M. S. Eur. J. Pharmacol. 320, 267–275, 1997). The membranes were incubated with 10 μM GDP and decreasing concentrations of test drugs (from 100 μM to 0.1 nM) or decreasing concentrations of 5-HT (from 100 μM to 0.1 nM, reference curve) for 20 min at 30° C. in a final volume of about 0.25 ml. [^35S]GTPγS ([…] in 10 μl) was added to samples and incubated for a further 30 min at 30° C. Non-specific binding was determined in the presence of 10 μM GTPγS. The incubation was stopped by addition of ice-cold HEPES buffer and rapid filtration on Unifilter GF/C filters, using a Filtermate cell harvester (Packard). The filters were washed four times with total 1.2 ml of same buffer. Radioactivity was counted by liquid scintillation spectrometry with efficiency >90% (TopCount Packard). Stimulation of [^35S]GTPγS binding induced by the compounds tested was espressed as % increase in binding above basal value, being the maximal stimulation observed with 5-HT taken as 100%. The concentration-response curve of the agonistic activity was analyzed by non linear fitting program (De Lean et al., Am. J. Physiol. 235, E97-E102, 1978).
A stimulation of [^35S]GTPγS binding represented the functional correlate of the binding of an agonist compound at the 5-HT1A receptors. Stimulation induced by the endogenous ligand 5-HT was considered the maximal stimulation attainable.

For assay [3], the system named is rhythmic bladder-voiding contractions in anaesthetised rats. Kind of assay: Rhythmic bladder-voiding contractions induced by bladder filling in anaesthetised rats. The assay is classed as in vivo, rat. As to conditions: for ED10 min (extrapolated dose inducing 10 minutes of disappearance of the contractions) / ED50: intravenous administration, anaesthetised rats; for ED50: Rattus norvegicus. As to the method:
Female Sprague-Dawley rats weighing 225–275 g (Crl: CD® (SD) IGS BR, Charles River Italia) were used. The animals were housed with free access to food and water and maintained on a forced 12-hour alternating light-dark cycle at 22–24° C. for at least one week, except during the experiment. The activity on rhythmic bladder voiding contractions was evaluated according to the method of Dray (Dray J., Pharmacol. Methods, 13:157, 1985), with some modifications as in Guarneri (Guarneri, Pharmacol. Res. 27:173, 1993). Briefly, the rats were anaesthetised by subcutaneous injection of 1.25 g/kg (5 ml/kg) urethane, after which the urinary bladder was catheterised via the urethra using PE 50 polyethylene tubing filled with physiological saline. The catheter was tied in place with a ligature around the external urethral orifice and was connected to conventional pressure transducers (Statham P23 ID/P23 XL). […] The bladder was then filled via the recording catheter by incremental volumes of warm (37° C.) saline until reflex bladder-voiding contractions occurred (usually 0.81.5 ml). For intravenous injection of bioactive compounds, PE 50 polyethylene tubing filled with physiological saline was inserted into the jugular vein.
From the cystometrogram, the number of contractions recorded 15 minutes before (basal values) and after treatment, as well as the mean amplitude of these contractions (mean height of the peaks in mmHg), was evaluated.
Since most compounds produced an effect that was relatively rapid in onset and led to a complete cessation of bladder contractions, bioactivity was conveniently estimated by measuring the duration of bladder quiescence (i.e., the length of the time during which no contractions occurred). The number of tested animals showing a reduction in the number of contractions higher than 30% of that observed in the basal period was recorded too.
The extrapolated doses which induced a reduction in the number of contractions greater than 30% in 50% of the treated rats (ED50) were evaluated by the method of Bliss (Bliss C. I., Quart J. Pharm. Pharmacol. 11, 192–216, 1938).

On to `O[C@@H](C1CCCCC1)[C@H](CCN1CCN(c2ccccc2OCC(F)(F)F)CC1)c1ccccc1F` (racemic) [Ex. 3, 1-[(RS,SR)-4-cyclohexyl-4-hydroxy-3-(2-fluorophenyl)-butyl]-4-[2-(2,2,2-trifluoroethoxy)-phenyl]-piperazine], for which the negative-log Ki (pKi) in assay [1] is 9.54. In addition, the “Functional effect ([35S]GTPγS binding)” value in assay [2] is “Neutral antagonist”.
For `COc1ccccc1N1CCN(CC[C@@H](c2ccccc2F)[C@H](O)C2CCCCC2)CC1` [Ex. 1X, 1-[(3S,4R)-4-cyclohexyl-4-hydroxy-3-(2-fluorophenyl)-butyl]-4-(2-methoxyphenyl)-piperazine], the pKi in assay [1] is 9.30. In addition, the “Functional effect ([35S]GTPγS binding)” value in assay [2] is “Partial agonist”.
Consider `COc1ccccc1N1CCN(CCC(c2ccccc2F)C(O)C2CCCCC2)CC1` (stereo not shown) [Ex. 2, 1-[(RR-SS)-4-cyclohexyl-4-hydroxy-3-(2-fluorophenyl)-butyl]-4-(2-methoxyphenyl)-piperazine], for which the pKi in assay [1] is 9.54. In addition, the “potency at the 5-HT1A receptor compared with Ex. 5” value in assay [1] (statistical signficance p<0.01) is listed as “more potent than Ex. 5”. The “Functional effect ([35S]GTPγS binding)” value in assay [2] is recorded as “Neutral antagonist”.
Regarding `COc1ccccc1N1CCN(CC[C@@H](c2ccccc2F)[C@@H](O)C2CCCCC2)CC1` [Ex. 2Y, 1-[(3S,4S)-4-cyclohexyl-4-hydroxy-3-(2-fluorophenyl)-butyl]-4-(2-methoxyphenyl)-piperazine], in assay [1], the pKi was 9.01. For the same compound, the “Functional effect ([35S]GTPγS binding)” value in assay [2] is “Partial agonist”.
The corresponding values for `OC(C1CCCCC1)C(CCN1CCN(c2ccccc2OCC(F)(F)F)CC1)c1ccccc1F` (stereo not drawn) [Ex. 4, 1-[(RR,SS)-4-cyclohexyl-4-hydroxy-3-(2-fluorophenyl)-butyl]-4-[2-(2,2,2-trifluoroethoxy)-phenyl]-piperazine] are 9.17 and “Neutral antagonist”.
In the case of `Cc1c(-c2ccccc2)oc2c(C(=O)OCCN3CCCCC3)cccc2c1=O` [Flavoxate], the “ED10 min (extrapolated dose inducing 10 minutes of disappearance of the contractions)” value in assay [3] was over 10 mg/kg.
Take `CCN(CC)CC#CCOC(=O)C(O)(c1ccccc1)C1CCCCC1` (stereo not shown) [Oxybutynin]: the ED50 is 0.24 mg/kg in assay [3] (n.a. = not active, no significant reduction of the height of the peaks, read-out: ED50 (amplitude) (extrapolated dose inducing a 30% reduction of amplitude of the contractions in 50% of treated rats)) and over 10 mg/kg in assay [3] (read-out: ED50 (frequency) (extrapolated dose inducing a reduction of the number of contractions > 30% in 50% of treated rats)). The “blockade of bladder contractions” value in assay [3] (at 240 μg/kg) was “did not cause a blockade of bladder contractions”. In assay [3], the “ED10 min (extrapolated dose inducing 10 minutes of disappearance of the contractions)” value was 7.77 mg/kg.
